According to publication PMC12225141 (BMC Chemistry, 2025):

Target: calf intestinal alkaline phosphatase (cIAP) (Bos taurus, UniProt P19111)
Assay: spectrophotometric p-NPP hydrolysis assay at […] nm, commercial cIAP
Format: biochemical

Chain of calf intestinal alkaline phosphatase (cIAP) (P19111 20-506): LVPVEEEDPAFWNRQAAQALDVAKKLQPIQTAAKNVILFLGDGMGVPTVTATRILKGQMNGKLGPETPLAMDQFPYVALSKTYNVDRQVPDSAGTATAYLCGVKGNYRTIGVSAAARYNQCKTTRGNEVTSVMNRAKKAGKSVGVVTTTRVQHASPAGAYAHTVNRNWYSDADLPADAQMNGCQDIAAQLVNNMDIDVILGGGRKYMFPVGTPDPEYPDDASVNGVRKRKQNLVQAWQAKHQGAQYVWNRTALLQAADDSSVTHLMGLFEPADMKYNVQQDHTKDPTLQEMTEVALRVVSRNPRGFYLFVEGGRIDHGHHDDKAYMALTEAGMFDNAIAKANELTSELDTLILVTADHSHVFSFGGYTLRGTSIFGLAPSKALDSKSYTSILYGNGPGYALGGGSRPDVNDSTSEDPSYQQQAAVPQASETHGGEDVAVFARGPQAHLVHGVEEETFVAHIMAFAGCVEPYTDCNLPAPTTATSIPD

With `CCNC(=S)NC(=O)c1cccc2ccccc12` [NA-MT, N-(ethylcarbamothioyl)-1-naphthamide] the IC50 was 9.875 ± 0.05 µM.
